Source: PubChem BioAssay (NCI)
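Each compound was tested at five concentrations against cells in 96-well plates for 48 hours. At the GI50, growth is halved. TGI denotes the concentration required for complete inhibition of growth.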

Legend:
Assay in all cases: growth of human tumour cells (NCI), 48 h
IGROV1 ovarian = tested on: IGROV1 ovarian
SNB-75 CNS = tested on: SNB-75 CNS
786-0 renal = tested on: 786-0 renal
SR leukemia = tested on: SR leukemia
CAKI-1 renal = tested on: CAKI-1 renal
MCF7 breast = tested on: MCF7 breast
MALME-3M melanoma = tested on: MALME-3M melanoma
BT-549 breast = tested on: BT-549 breast
HCT-116 colon = tested on: HCT-116 colon
HL-60(TB) leukemia = tested on: HL-60(TB) leukemia
SK-MEL-28 melanoma = tested on: SK-MEL-28 melanoma
DU-145 prostate = tested on: DU-145 prostate
OVCAR-4 ovarian = tested on: OVCAR-4 ovarian
UACC-257 melanoma = tested on: UACC-257 melanoma
SK-MEL-5 melanoma = tested on: SK-MEL-5 melanoma
NCI/ADR-RES ovarian = tested on: NCI/ADR-RES ovarian
HOP-92 NSCLC = tested on: HOP-92 NSCLC
K-562 leukemia = tested on: K-562 leukemia
SF-268 CNS = tested on: SF-268 CNS
OVCAR-3 ovarian = tested on: OVCAR-3 ovarian
U251 CNS = tested on: U251 CNS
OVCAR-8 ovarian = tested on: OVCAR-8 ovarian
SK-MEL-2 melanoma = tested on: SK-MEL-2 melanoma
NCI-H522 lung = tested on: NCI-H522 lung
RXF 393 renal = tested on: RXF 393 renal
SW-620 colon = tested on: SW-620 colon
OVCAR-5 ovarian = tested on: OVCAR-5 ovarian
SK-OV-3 ovarian = tested on: SK-OV-3 ovarian
PC-3 prostate = tested on: PC-3 prostate
SN12C renal = tested on: SN12C renal
SF-295 CNS = tested on: SF-295 CNS
UO-31 renal = tested on: UO-31 renal
MOLT-4 leukemia = tested on: MOLT-4 leukemia
MDA-MB-435 = tested on: MDA-MB-435
ACHN renal = tested on: ACHN renal
HCT-15 colon = tested on: HCT-15 colon
HT29 colon = tested on: HT29 colon
NCI-H226 lung = tested on: NCI-H226 lung
LOX IMVI melanoma = tested on: LOX IMVI melanoma
TK-10 renal = tested on: TK-10 renal
RPMI-8226 leukemia = tested on: RPMI-8226 leukemia
UACC-62 melanoma = tested on: UACC-62 melanoma
EKVX NSCLC = tested on: EKVX NSCLC
COLO 205 colon = tested on: COLO 205 colon
CCRF-CEM leukemia = tested on: CCRF-CEM leukemia
NCI-H23 lung = tested on: NCI-H23 lung
T-47D breast = tested on: T-47D breast
A498 renal = tested on: A498 renal
NCI-H460 lung = tested on: NCI-H460 lung
HOP-62 NSCLC = tested on: HOP-62 NSCLC
M14 melanoma = tested on: M14 melanoma
SF-539 CNS = tested on: SF-539 CNS
MDA-MB-231 breast = tested on: MDA-MB-231 breast
KM12 colon = tested on: KM12 colon
A549 NSCLC = tested on: A549 NSCLC
SNB-19 CNS = tested on: SNB-19 CNS

CC[As](CC)SC[C@H](C)C(=O)N1CCC[C@H]1C(=O)O
GI50 (IGROV1 ovarian): 214 nM
TGI (IGROV1 ovarian): 1110 nM
GI50 (SNB-75 CNS): 79.6 nM
TGI (SNB-75 CNS): 628 nM
GI50 (786-0 renal): 21 nM
TGI (786-0 renal): 74.3 nM
GI50 (SR leukemia): < 10 nM
TGI (SR leukemia): 10.2 nM
GI50 (CAKI-1 renal): < 18.1 nM
TGI (CAKI-1 renal): 64.8 nM
GI50 (MCF7 breast): 36.3 nM
TGI (MCF7 breast): 159 nM
GI50 (MALME-3M melanoma): 44.1 nM
TGI (MALME-3M melanoma): 207 nM
GI50 (BT-549 breast): 74.9 nM
TGI (BT-549 breast): 515 nM
GI50 (HCT-116 colon): 41.9 nM
TGI (HCT-116 colon): 162 nM
GI50 (HL-60(TB) leukemia): 23 nM
TGI (HL-60(TB) leukemia): 75.7 nM
GI50 (SK-MEL-28 melanoma): 55 nM
TGI (SK-MEL-28 melanoma): 212 nM
GI50 (DU-145 prostate): 29.7 nM
TGI (DU-145 prostate): 104 nM
GI50 (OVCAR-4 ovarian): 334 nM
TGI (OVCAR-4 ovarian): 1130 nM
GI50 (UACC-257 melanoma): 282 nM
TGI (UACC-257 melanoma): 1480 nM
GI50 (SK-MEL-5 melanoma): 54 nM
TGI (SK-MEL-5 melanoma): 151 nM
GI50 (NCI/ADR-RES ovarian): 15.2 nM
TGI (NCI/ADR-RES ovarian): 130 nM
GI50 (HOP-92 NSCLC): 17.7 nM
TGI (HOP-92 NSCLC): 93.3 nM
GI50 (K-562 leukemia): < 10 nM
TGI (K-562 leukemia): 61.5 nM
GI50 (SF-268 CNS): 249 nM
TGI (SF-268 CNS): 1000 nM
GI50 (OVCAR-3 ovarian): 13.5 nM
TGI (OVCAR-3 ovarian): 34.7 nM
GI50 (U251 CNS): 197 nM
TGI (U251 CNS): 576 nM
GI50 (OVCAR-8 ovarian): 123 nM
TGI (OVCAR-8 ovarian): 472 nM
GI50 (SK-MEL-2 melanoma): 522 nM
TGI (SK-MEL-2 melanoma): 1770 nM
GI50 (NCI-H522 lung): 18.9 nM
TGI (NCI-H522 lung): 48.2 nM
GI50 (RXF 393 renal): < 29.7 nM
TGI (RXF 393 renal): 475 nM
GI50 (SW-620 colon): 34.4 nM
TGI (SW-620 colon): 110 nM
GI50 (OVCAR-5 ovarian): 245 nM
TGI (OVCAR-5 ovarian): 735 nM
GI50 (SK-OV-3 ovarian): 326 nM
TGI (SK-OV-3 ovarian): 1050 nM
GI50 (PC-3 prostate): 106 nM
TGI (PC-3 prostate): 589 nM
GI50 (SN12C renal): 63.7 nM
TGI (SN12C renal): 218 nM
GI50 (SF-295 CNS): 743 nM
TGI (SF-295 CNS): 2000 nM
GI50 (UO-31 renal): 24 nM
TGI (UO-31 renal): 93.3 nM
GI50 (MOLT-4 leukemia): 16 nM
TGI (MOLT-4 leukemia): 58.6 nM
GI50 (MDA-MB-435): 30.5 nM
TGI (MDA-MB-435): 114 nM
GI50 (ACHN renal): 54.8 nM
TGI (ACHN renal): 169 nM
GI50 (HCT-15 colon): 27 nM
TGI (HCT-15 colon): 194 nM
GI50 (HT29 colon): 339 nM
TGI (HT29 colon): > 100000 nM
GI50 (NCI-H226 lung): 201 nM
TGI (NCI-H226 lung): 614 nM
GI50 (LOX IMVI melanoma): 45.8 nM
TGI (LOX IMVI melanoma): 102 nM
GI50 (TK-10 renal): 113 nM
TGI (TK-10 renal): 396 nM
GI50 (RPMI-8226 leukemia): < 10 nM
TGI (RPMI-8226 leukemia): 11.2 nM
GI50 (UACC-62 melanoma): 149 nM
TGI (UACC-62 melanoma): 538 nM
GI50 (EKVX NSCLC): 162 nM
TGI (EKVX NSCLC): 1720 nM
GI50 (COLO 205 colon): 34.4 nM
TGI (COLO 205 colon): 140 nM
GI50 (CCRF-CEM leukemia): 17 nM
TGI (CCRF-CEM leukemia): 57.3 nM
GI50 (NCI-H23 lung): 222 nM
TGI (NCI-H23 lung): 616 nM
GI50 (T-47D breast): 414 nM
TGI (T-47D breast): 1960 nM
GI50 (A498 renal): 296 nM
TGI (A498 renal): 866 nM
GI50 (NCI-H460 lung): 418 nM
TGI (NCI-H460 lung): 2170 nM
GI50 (HOP-62 NSCLC): 417 nM
TGI (HOP-62 NSCLC): 1370 nM
GI50 (M14 melanoma): 25.7 nM
TGI (M14 melanoma): 89.5 nM
GI50 (SF-539 CNS): 29.1 nM
TGI (SF-539 CNS): 136 nM
GI50 (MDA-MB-231 breast): 68.6 nM
TGI (MDA-MB-231 breast): 301 nM
GI50 (KM12 colon): 301 nM
TGI (KM12 colon): 1270 nM

NC(N)=N/N=C/c1c(-c2ccsc2)nc2sccn12
GI50 (SNB-75 CNS): 13400 nM
TGI (SNB-75 CNS): 26400 nM
GI50 (786-0 renal): 12000 nM
TGI (786-0 renal): 24300 nM
GI50 (CAKI-1 renal): 10300 nM
TGI (CAKI-1 renal): 21900 nM
GI50 (BT-549 breast): 22300 nM
TGI (BT-549 breast): 38100 nM
GI50 (HCT-116 colon): 13700 nM
TGI (HCT-116 colon): 27200 nM
GI50 (A549 NSCLC): 21700 nM
TGI (A549 NSCLC): 43700 nM
GI50 (HL-60(TB) leukemia): 16300 nM
TGI (HL-60(TB) leukemia): 56400 nM
GI50 (SK-MEL-28 melanoma): 14200 nM
TGI (SK-MEL-28 melanoma): 27600 nM
GI50 (DU-145 prostate): 16400 nM
TGI (DU-145 prostate): 31400 nM
GI50 (OVCAR-4 ovarian): 13600 nM
TGI (OVCAR-4 ovarian): 27100 nM
GI50 (UACC-257 melanoma): 22300 nM
TGI (UACC-257 melanoma): 41100 nM
GI50 (SK-MEL-5 melanoma): 14400 nM
TGI (SK-MEL-5 melanoma): 28800 nM
GI50 (NCI/ADR-RES ovarian): 16900 nM
TGI (NCI/ADR-RES ovarian): 32700 nM
GI50 (K-562 leukemia): 13100 nM
TGI (K-562 leukemia): 29900 nM
GI50 (SF-268 CNS): 15300 nM
TGI (SF-268 CNS): 29400 nM
GI50 (OVCAR-3 ovarian): 8800 nM
TGI (OVCAR-3 ovarian): 21200 nM
GI50 (U251 CNS): 15800 nM
TGI (U251 CNS): 30000 nM
GI50 (OVCAR-8 ovarian): 31100 nM
TGI (OVCAR-8 ovarian): 61700 nM
GI50 (NCI-H522 lung): 12200 nM
TGI (NCI-H522 lung): 30500 nM
GI50 (RXF 393 renal): 17900 nM
TGI (RXF 393 renal): 40000 nM
GI50 (SW-620 colon): 18300 nM
TGI (SW-620 colon): 43100 nM
GI50 (OVCAR-5 ovarian): 16600 nM
TGI (OVCAR-5 ovarian): 30300 nM
GI50 (SK-OV-3 ovarian): 14300 nM
TGI (SK-OV-3 ovarian): 30300 nM
GI50 (PC-3 prostate): 13200 nM
TGI (PC-3 prostate): 26000 nM
GI50 (SN12C renal): 15700 nM
TGI (SN12C renal): 29700 nM
GI50 (SF-295 CNS): 11400 nM
TGI (SF-295 CNS): 23600 nM
GI50 (UO-31 renal): 20000 nM
TGI (UO-31 renal): 36800 nM
GI50 (MOLT-4 leukemia): 10800 nM
TGI (MOLT-4 leukemia): 39000 nM
GI50 (MDA-MB-435): 14600 nM
TGI (MDA-MB-435): 27700 nM
GI50 (ACHN renal): 16900 nM
TGI (ACHN renal): 32000 nM
GI50 (SNB-19 CNS): 16700 nM
TGI (SNB-19 CNS): 32600 nM
GI50 (HCT-15 colon): 17100 nM
TGI (HCT-15 colon): 31700 nM
GI50 (HT29 colon): 11600 nM
TGI (HT29 colon): 25300 nM
GI50 (NCI-H226 lung): 16400 nM
TGI (NCI-H226 lung): 31200 nM
GI50 (LOX IMVI melanoma): 17600 nM
TGI (LOX IMVI melanoma): 33200 nM
GI50 (TK-10 renal): 10800 nM
TGI (TK-10 renal): 22700 nM
GI50 (RPMI-8226 leukemia): 4830 nM
TGI (RPMI-8226 leukemia): 20700 nM
GI50 (UACC-62 melanoma): 15600 nM
TGI (UACC-62 melanoma): 29000 nM
GI50 (EKVX NSCLC): 15100 nM
TGI (EKVX NSCLC): 29400 nM
GI50 (CCRF-CEM leukemia): 1480 nM
TGI (CCRF-CEM leukemia): 6070 nM
GI50 (NCI-H23 lung): 13500 nM
TGI (NCI-H23 lung): 26400 nM
GI50 (T-47D breast): 16800 nM
TGI (T-47D breast): 31900 nM
GI50 (A498 renal): 17500 nM
TGI (A498 renal): 31800 nM
GI50 (NCI-H460 lung): 14800 nM
TGI (NCI-H460 lung): 28000 nM
GI50 (HOP-62 NSCLC): 14300 nM
TGI (HOP-62 NSCLC): 27400 nM
GI50 (M14 melanoma): 18500 nM
TGI (M14 melanoma): 32400 nM
GI50 (SF-539 CNS): 18300 nM
TGI (SF-539 CNS): 34200 nM
GI50 (MDA-MB-231 breast): 16600 nM
TGI (MDA-MB-231 breast): 30900 nM
GI50 (KM12 colon): 12100 nM
TGI (KM12 colon): 24500 nM
